{"source": "patent US20220347139A1", "about": "“METHOD OF TREATMENT VIA INTRA-ARTICULAR APPLICATION OF POTASSIUM” (Rensselaer Polytechnic Institute, priority 2018, published 2022)", "key": {"Primary human OACs": {"test_system": "Primary human OACs", "assay": "Inflammatory protein production in osteoarthritic chondrocytes after short-term K+ treatment", "format": "cell-based", "from_the_text": "(§1) Raw 264.7 murine macrophages (a cell line) were thawed and expanded in regular growth medium: high-glucose Dulbecco's modified Eagle's medium (DMEM; Corning) supplemented with 10% fetal bovine serum (FBS; Hyclone, Atlanta Biologicals, Inc.). Primary human OACs (Cell Applications, Inc.) were expanded in chondrogenic growth media for four passages, transitioned into regular growth medium for 1 passage, and utilized at passage 5.\nReferring now to FIGS. 5B and 5C, relative protein production of proinflammatory and anti-inflammatory molecules and the ratio between anti/proinflammatory profiles in Raw 264.7 macrophages were determined after 5 days in culture. “*” denotes a significant difference relative to IFN controls. “#” denotes a significant difference relative to 24-h 80 mM K^+ gluconate. “+” denotes a significant difference relative to 24-h MSCs."}, "[1]": {"test_system": "Raw 264.7 murine macrophages", "assay": "IFN-stimulated macrophages in PEGDA hydrogels, in vitro mimic of intra-articular injection", "format": "cell-based", "experimental": "Referring now to FIG. 5A, an in vitro experiment was designed to mimic an intra-articular injection of potassium osmolytes consistent with the embodiments described above. Poly(ethylene glycol) diacrylate hydrogels encapsulated with proinflammatory interferon-gamma (IFN)-stimulated macrophages (M(IFN)s) were prepared. M(IFN)s were cultured for 5 days in the continued presence of IFN, with 80 mM K+ applied only during the first day and then removed. Other IA injection formulations—human mesenchymal stem cells (MSCs) and methylprednisolone acetate (MPA)—were also included to gain a sense of efficacy and benchmark against current OA treatments.\nThe PEGDA hydrogel (˜50 kPa stiffness) was provided at the bottom of the culture well to create a surface that more closely matches the stiffness of articular cartilage (aggregate modulus ˜500 kPa) than traditional plastic 2D surfaces (˜1×10^6 kPa). MSC behavior is known to respond to substrate stiffness. Assessments for treatment efficacy included cell lysate levels of several proinflammatory markers, anti-inflammatory markers, and the ratio between anti/proinflammatory profiles.\nas §1\nAliquots ([…]; 1×10^6 cells per construct) of the cell/polymer suspension were dispensed into the wells of a 48-well plate (Corning) and cured by exposure to long-wave UV light (˜10 mW/cm^2) for 6 min. […]\nReferring now to FIGS. 5B and 5C, relative protein production of proinflammatory and anti-inflammatory molecules and the ratio between anti/proinflammatory profiles in Raw 264.7 macrophages were determined after 5 days in culture. […]"}}, "note": "“Also recorded” adds a separate entry of the source.", "data": [{"smiles": "O=C([O-])[C@H](O)[C@@H](O)[C@H](O)[C@H](O)CO.[K+]", "note": "[K+ gluconate, potassium gluconate]", "values": [{"measurement": "IL-8 production", "setting": "Primary human OACs", "result": "extended benefit"}, {"measurement": "MCP-1 production", "setting": "Primary human OACs", "result": "extended benefit"}, {"measurement": "MMP-13 production", "setting": "Primary human OACs; listed as K^+", "result": "extended benefit; also recorded: reduced production"}, {"measurement": "anti/proinflammatory cytokine ratio (relative protein production)", "setting": "[1]; 80 mM K+ applied during the first day only, 5 days in culture in continued presence of IFN, relative to IFN controls", "result": "significantly enhanced"}, {"measurement": "macrophage polarization", "setting": "[1]; 80 mM, M(IFN)s", "result": "toward an anti-inflammatory/proresolving phenotype"}, {"measurement": "anti/proinflammatory profile, 40 mM versus 80 mM treatment", "setting": "[1]; comparison between 40 and 80-mM treatments", "result": "not significantly different"}]}]}
